{"source": "patent US4269843A", "about": "“N-Sec-alkyl analogs of norcodeine and normorphine and analgesic compositions and methods employing the normorphine derivatives” (priority 1980, dated 1981)", "key": {"mice [1]": {"tested_on": "mice", "experiment": "Straub Tail Antagonist Assay (morphine-injected mice)", "format": "in vivo, mouse", "conditions": "for ED50: Mus musculus, dose which abolishes the response in 50% of the test mice, read-out: Inhibition of Straub tail response (ED50); for antagonist properties (in words): summary statement", "source_text": "(§1) Using mice, the compounds of this invention were subjected to the Tail Flick Analgesic Assay, the Writhing Analgesic Assay, the Straub Tail Antagonist Assay and the Mouse Jump Physical Dependence Assay, said assays being described in the literature as follows:\nStraub Tail Antagonist Assay\nBlumberg, H. and Dayton, H. B. In Narcotic antagonists Advances in Biochemical Psychopharmacology, Vol. 8, Ed., Brande, M. C., Harris L. S."}, "mice [2]": {"tested_on": "mice", "experiment": "Mouse Jump Physical Dependence Assay", "format": "in vivo", "conditions": "for Total Number Mice Affected (Jumped): i.p., 30 min; for number of mice jumping / withdrawal symptoms (in words): Naloxone 100 mg/kg on day 4, 30 minutes", "source_text": "as §1\nSaelens, J. K., Granat, F. R. and Sawyer, W. K. Arch. int. Pharmacodyn 190, 213-218 (1971).\nUsing mice, tests were made to determine the physical dependence capacity of compounds 7(S) 7(R) and 9 as measured by the Mouse Jump Test, this being a simple screening method to estimate the physical dependence capacity of analgesics. In this mouse jumping test, the mice are injected (i.p.) 5× on day 1 with gradually increasing dosages ranging from 8 to 100 mg/kg of body weight. On days 2 and 3 the mice (in all except one test) were given 100 mg/kg 4×. In the one test, dosage was raised to 200-300 mg/kg on day 2 and to 300 mg/kg on day 3. On day 4 all the mice received one shot (100 mg/kg) of the antogonist Naloxone. Following this all mice were caged for 30 minutes and a record was made of the number of mice jumping during this interval."}, "mice [3]": {"tested_on": "mice", "experiment": "animal or person", "format": "in vivo", "conditions": "Mus musculus, ip, phenylquinone i.p., dose which eliminates any writhing in 50% of the treated mice", "source_text": "as §1\nBlumberg, H., Wolf, P. S. and Dayton, H. B., Proc. soc. Exper. Biol. Med., 118, 763 (1965).\nThe ED50 values given in Table 1 below represent the dose (μM/kg) which eliminates any such writhing in 50% of the treated mice."}, "mice [4]": {"tested_on": "mice", "experiment": "animal or person", "format": "in vivo, mouse", "conditions": "for ED50: Mus musculus, mice, dose [micromoles per kg of body weight] which gives a group mean response time of 5 seconds, read-out: Tail Flick (ED50); for analgesic activity (in words): summary statement, mice tail flick and writhing assays", "source_text": "as §1\nTail Flick Analgesic Assay\nD'Amour, F. E and Smith, D. L., J. Pharmacol. Exp. Therap. 72, 74-79 (1941)\nHowes, J. F., Harris, L. S., Dewey, W. L. and Voyda, C. A., J. Pharmacol. Exp. Therap. 169, 23-28 (1969)\nDewey, W. L., Harris, L. S., Howes, J. F. and Nuite, J. A., J. Pharmacol. Exp. Therap. 175, 435-442 (1970)\nThe Tail Flick Analgesic Assay represents a test procedure in which heat from an intense light source is focused on the mouse's tail. When pain is detected by the mouse the tail gives a characteristic flicking response. In untreated controls the intervals from exposure to flick is about 2 seconds, while when using an effective analgesic the interval from exposure to flick is usually about 6 to 10 seconds. The ED50 values given in Table 1 below represent the dose [micromoles (μM) per kg of body weight] which gives a group mean response time of 5 seconds."}, "[5]": {"conditions": "cited from earlier work; for analgesic / agonist activity (in words): literature"}, "[6]": {"conditions": "literature; cited from earlier work"}, "[7]": {"conditions": "8-100 mg/kg day 1, 100 mg/kg days 2 and 3, 100 mg/kg Naloxone day 4, mice tested: 7(S) 20, 7(R) 12, 9 10, Morphine 10, Nalline 12"}}}
{"smiles": "CC[C@@H](C)N1CC[C@]23c4c5ccc(O)c4O[C@H]2[C@@H](O)C=C[C@H]3[C@H]1C5", "note": "[7(R), N-2-butylnormorphine]", "values": [{"measurement": "ED50", "setting": "mice [1]; mice injected with morphine", "value": 16.2, "unit": "µmol/kg"}, {"measurement": "Total Number Mice Affected (Jumped)", "setting": "mice [2]; [7]", "value": 1}, {"measurement": "number of mice jumping / withdrawal symptoms (in words)", "setting": "mice [2]", "value": "very small"}, {"measurement": "ED50", "setting": "mice [3]", "value": 6.4, "unit": "µmol/kg"}, {"measurement": "ED50", "setting": "mice [4]", "value": 19, "unit": "µmol/kg"}]}
{"smiles": "CC[C@H](C)N1CC[C@]23c4c5ccc(O)c4O[C@H]2[C@@H](O)C=C[C@H]3[C@H]1C5", "note": "[7(S), N-2-butylnormorphine]", "values": [{"measurement": "ED50", "setting": "mice [1]; mice injected with morphine", "value": 7.4, "unit": "µmol/kg"}, {"measurement": "Total Number Mice Affected (Jumped)", "setting": "mice [2]; [7]", "value": 2}, {"measurement": "Total Number Mice Affected (Jumped)", "setting": "mice [2]; 8-100 mg/kg day 1, 200-300 mg/kg day 2, 300 mg/kg day 3, 100 mg/kg Naloxone day 4, 10 mice tested", "value": 1}, {"measurement": "number of mice jumping / withdrawal symptoms (in words)", "setting": "mice [2]", "value": "very small"}, {"measurement": "ED50", "setting": "mice [3]", "value": 11, "unit": "µmol/kg"}, {"measurement": "ED50", "setting": "mice [4]", "value": 13.4, "unit": "µmol/kg"}]}
{"smiles": "C=C[C@@H](C)N1CC[C@]23c4c5ccc(O)c4O[C@H]2[C@@H](O)C=C[C@H]3[C@H]1C5", "note": "[8(R), N-α-methylallylnormorphine]", "values": [{"measurement": "ED50", "setting": "mice [1]; mice injected with morphine", "value": 11, "unit": "µmol/kg"}, {"measurement": "ED50", "setting": "mice [3]", "value": 13, "unit": "µmol/kg"}, {"measurement": "ED50", "setting": "mice [4]", "value": 44.5, "unit": "µmol/kg"}]}
{"smiles": "CCC(C)N1CC[C@]23c4c5ccc(O)c4O[C@H]2[C@@H](O)C=C[C@H]3[C@H]1C5", "note": "(stereo partly shown) [Compound 7, N-2-butylnormorphine]", "values": [{"measurement": "antagonist properties (in words)", "setting": "mice [1]", "value": "antagonist properties indicative of low addiction potential"}, {"measurement": "analgesic activity (in words)", "setting": "mice [4]", "value": "analgesic activities similar to morphine"}]}
{"smiles": "C=CC(C)N1CC[C@]23c4c5ccc(O)c4O[C@H]2[C@@H](O)C=C[C@H]3[C@H]1C5", "note": "(stereo partly drawn) [Compound 8, N-α-methylallylnormorphine]", "values": [{"measurement": "antagonist properties (in words)", "setting": "mice [1]", "value": "antagonist properties indicative of low addiction potential"}, {"measurement": "analgesic activity (in words)", "setting": "mice [4]", "value": "analgesic activities similar to morphine"}]}
{"smiles": "CC(C1CC1)N1CC[C@]23c4c5ccc(O)c4O[C@H]2[C@@H](O)C=C[C@H]3[C@H]1C5", "note": "(stereo partly drawn) [Compound 9, N-α-methylcyclopropylmethylnormorphine]", "values": [{"measurement": "ED50", "setting": "mice [1]; mice injected with morphine", "value": 4.5, "unit": "µmol/kg"}, {"measurement": "antagonist properties (in words)", "setting": "mice [1]", "value": "antagonist properties indicative of low addiction potential"}, {"measurement": "Total Number Mice Affected (Jumped)", "setting": "mice [2]; [7]", "value": 1}, {"measurement": "number of mice jumping / withdrawal symptoms (in words)", "setting": "mice [2]", "value": "very small"}, {"measurement": "ED50", "setting": "mice [3]", "value": 0.69, "unit": "µmol/kg"}, {"measurement": "ED50", "setting": "mice [4]", "value": 12.4, "unit": "µmol/kg"}, {"measurement": "analgesic activity (in words)", "setting": "mice [4]", "value": "analgesic activities similar to morphine"}]}
{"smiles": "CCC(CC)N1CC[C@]23c4c5ccc(O)c4O[C@H]2[C@@H](O)C=C[C@H]3[C@H]1C5", "note": "[Compound 10, N-3-pentylnormorphine]", "values": [{"measurement": "ED50", "setting": "mice [1]; mice injected with morphine", "value": 17.2, "unit": "µmol/kg"}, {"measurement": "antagonist properties (in words)", "setting": "mice [1]", "value": "antagonist properties indicative of low addiction potential"}, {"measurement": "ED50", "setting": "mice [3]", "value": 2.3, "unit": "µmol/kg"}, {"measurement": "ED50", "setting": "mice [4]", "value": 19.9, "unit": "µmol/kg"}, {"measurement": "analgesic activity (in words)", "setting": "mice [4]", "value": "analgesic activities similar to morphine"}]}
{"smiles": "CN1CC[C@]23c4c5ccc(O)c4O[C@H]2[C@@H](O)C=C[C@H]3[C@H]1C5", "note": "[Morphine]", "values": [{"measurement": "Inhibition of Straub tail response (result in words)", "setting": "mice [1]; mice injected with morphine", "value": "No inhibition"}, {"measurement": "Total Number Mice Affected (Jumped)", "setting": "mice [2]; [7]", "value": 10}, {"measurement": "number of mice jumping / withdrawal symptoms (in words)", "setting": "mice [2]", "value": "all of the mice showed withdrawal symptoms"}]}
{"smiles": "CCCCCN1CC[C@]23c4c5ccc(O)c4O[C@H]2[C@@H](O)C=C[C@H]3[C@H]1C5", "note": "[N-amyl-, N-amylnormorphine]", "values": [{"measurement": "analgesic / agonist activity (in words)", "setting": "[5]", "value": "potent analgesic activity"}, {"measurement": "antagonist activity (in words)", "setting": "[6]", "value": "devoid of antagonist properties"}]}
{"smiles": "CCCCN1CC[C@]23c4c5ccc(O)c4O[C@H]2[C@@H](O)C=C[C@H]3[C@H]1C5", "note": "[N-butyl-, N-butylnormorphine]", "values": [{"measurement": "analgesic / agonist activity (in words)", "setting": "[5]", "value": "potent analgesic activity"}, {"measurement": "antagonist activity (in words)", "setting": "[6]", "value": "devoid of antagonist properties"}]}
{"smiles": "CCCCCCN1CC[C@]23c4c5ccc(O)c4O[C@H]2[C@@H](O)C=C[C@H]3[C@H]1C5", "note": "[N-hexylnormorphine]", "values": [{"measurement": "analgesic / agonist activity (in words)", "setting": "[5]", "value": "potent analgesic activity"}, {"measurement": "antagonist activity (in words)", "setting": "[6]", "value": "devoid of antagonist properties"}]}
{"smiles": "CC(C)CN1CC[C@]23c4c5ccc(O)c4O[C@H]2[C@@H](O)C=C[C@H]3[C@H]1C5", "note": "[N-isobutylnormorphine]", "values": [{"measurement": "antagonist activity (in words)", "setting": "[6]", "value": "morphine antagonists only"}]}
{"smiles": "COc1ccc2c3c1O[C@H]1[C@@H](O)C=C[C@H]4[C@@H](C2)N(C(C)C)CC[C@@]341", "note": "[N-isopropyl-norcodeine]", "values": [{"measurement": "analgesic / agonist activity (in words)", "setting": "[5]", "value": "inactive"}]}
{"smiles": "CC(C)N1CC[C@]23c4c5ccc(O)c4O[C@H]2[C@@H](O)C=C[C@H]3[C@H]1C5", "note": "[N-isopropyl-normorphine]", "values": [{"measurement": "analgesic / agonist activity (in words)", "setting": "[5]", "value": "not a good agonist"}, {"measurement": "antagonist activity (in words)", "setting": "[6]", "value": "little, if any, antagonist qualities"}]}
{"smiles": "CCCN1CC[C@]23c4c5ccc(O)c4O[C@H]2[C@@H](O)C=C[C@H]3[C@H]1C5", "note": "[N-propyl normorphine]", "values": [{"measurement": "antagonist activity (in words)", "setting": "[6]", "value": "morphine antagonists only"}]}
{"smiles": "C=CCN1CC[C@]23c4c5ccc(O)c4O[C@H]2[C@@H](O)C=C[C@H]3[C@H]1C5", "note": "[Nalorphine, N-allylnormorphine, reference compound]", "values": [{"measurement": "ED50", "setting": "mice [1]; mice injected with morphine", "value": 1, "unit": "µmol/kg"}, {"measurement": "Total Number Mice Affected (Jumped)", "setting": "mice [2]; [7]", "value": "0-3"}, {"measurement": "number of mice jumping / withdrawal symptoms (in words)", "setting": "mice [2]", "value": "very small"}]}
{"smiles": "CC(C)=CCN1CCC2(C)c3cc(O)ccc3CC1C2C", "note": "(stereo not shown) [pentazocine]", "values": [{"measurement": "analgesic potency relative to morphine", "setting": "[5]; fraction of the potency of morphine", "value": "about one-fourth"}, {"measurement": "antagonist activity (in words)", "setting": "[6]", "value": "dual agonist-antagonist"}]}
